Measured values taken from PubChem BioAssay (NCI).
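Results reflect a 48-hour exposure of cells in 96-well plates to compound at five concentrations. GI50 marks 50% less growth. TGI marks complete inhibition of growth.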

Experiments:
Assay in all cases: NCI anticancer screen, dose series, 48 h
UO-31 renal = tested on: UO-31 renal
EKVX NSCLC = tested on: EKVX NSCLC
SK-MEL-2 melanoma = tested on: SK-MEL-2 melanoma
DU-145 prostate = tested on: DU-145 prostate
MDA-MB-435 = tested on: MDA-MB-435
COLO 205 colon = tested on: COLO 205 colon
SF-268 CNS = tested on: SF-268 CNS
NCI-H226 lung = tested on: NCI-H226 lung
HT29 colon = tested on: HT29 colon
SR leukemia = tested on: SR leukemia
HCT-15 colon = tested on: HCT-15 colon
MDA-MB-231 breast = tested on: MDA-MB-231 breast
786-0 renal = tested on: 786-0 renal
OVCAR-3 ovarian = tested on: OVCAR-3 ovarian
SNB-19 CNS = tested on: SNB-19 CNS
T-47D breast = tested on: T-47D breast
OVCAR-8 ovarian = tested on: OVCAR-8 ovarian
LOX IMVI melanoma = tested on: LOX IMVI melanoma
NCI/ADR-RES ovarian = tested on: NCI/ADR-RES ovarian
SK-MEL-5 melanoma = tested on: SK-MEL-5 melanoma
UACC-257 melanoma = tested on: UACC-257 melanoma
TK-10 renal = tested on: TK-10 renal
OVCAR-4 ovarian = tested on: OVCAR-4 ovarian
SF-539 CNS = tested on: SF-539 CNS
HOP-92 NSCLC = tested on: HOP-92 NSCLC
IGROV1 ovarian = tested on: IGROV1 ovarian
M14 melanoma = tested on: M14 melanoma
MALME-3M melanoma = tested on: MALME-3M melanoma
CCRF-CEM leukemia = tested on: CCRF-CEM leukemia
BT-549 breast = tested on: BT-549 breast
NCI-H522 lung = tested on: NCI-H522 lung
SW-620 colon = tested on: SW-620 colon
U251 CNS = tested on: U251 CNS
HCT-116 colon = tested on: HCT-116 colon
SF-295 CNS = tested on: SF-295 CNS
HCC-2998 colon = tested on: HCC-2998 colon
SNB-75 CNS = tested on: SNB-75 CNS
NCI-H23 lung = tested on: NCI-H23 lung
A498 renal = tested on: A498 renal
OVCAR-5 ovarian = tested on: OVCAR-5 ovarian
ACHN renal = tested on: ACHN renal
SK-MEL-28 melanoma = tested on: SK-MEL-28 melanoma
A549 NSCLC = tested on: A549 NSCLC
SN12C renal = tested on: SN12C renal
K-562 leukemia = tested on: K-562 leukemia
KM12 colon = tested on: KM12 colon
NCI-H460 lung = tested on: NCI-H460 lung
PC-3 prostate = tested on: PC-3 prostate
MCF7 breast = tested on: MCF7 breast
RPMI-8226 leukemia = tested on: RPMI-8226 leukemia
UACC-62 melanoma = tested on: UACC-62 melanoma
MOLT-4 leukemia = tested on: MOLT-4 leukemia
HS 578T breast = tested on: HS 578T breast
RXF 393 renal = tested on: RXF 393 renal
SK-OV-3 ovarian = tested on: SK-OV-3 ovarian
HOP-62 NSCLC = tested on: HOP-62 NSCLC
HL-60(TB) leukemia = tested on: HL-60(TB) leukemia

SMILES: CC(=O)OC[C@]1(C)C=C2C(=O)[C@](C)(O)C3(CC3)C(C)=C2[C@H]1OC(=O)N(C)CCN(C)C(=O)OC(C)(C)C
- GI50 (UO-31 renal): 0.732 µM
- TGI (UO-31 renal): 2.23 µM
- GI50 (EKVX NSCLC): 1.7 µM
- TGI (EKVX NSCLC): 10.7 µM
- GI50 (SK-MEL-2 melanoma): 0.695 µM
- TGI (SK-MEL-2 melanoma): 1.42 µM
- GI50 (DU-145 prostate): 0.85 µM
- TGI (DU-145 prostate): 20.9 µM
- GI50 (MDA-MB-435): 0.809 µM
- TGI (MDA-MB-435): 2.35 µM
- GI50 (COLO 205 colon): 0.744 µM
- TGI (COLO 205 colon): 2.58 µM
- GI50 (SF-268 CNS): 1.17 µM
- TGI (SF-268 CNS): 8.57 µM
- GI50 (NCI-H226 lung): 9.01 µM
- TGI (NCI-H226 lung): 25.1 µM
- GI50 (HT29 colon): 0.612 µM
- TGI (HT29 colon): 3.26 µM
- GI50 (SR leukemia): 0.961 µM
- TGI (SR leukemia): > 33.3 µM
- GI50 (HCT-15 colon): 0.889 µM
- TGI (HCT-15 colon): > 33.3 µM
- GI50 (MDA-MB-231 breast): 1.11 µM
- TGI (MDA-MB-231 breast): 4.72 µM
- GI50 (786-0 renal): 0.938 µM
- TGI (786-0 renal): 2.8 µM
- GI50 (OVCAR-3 ovarian): 1.06 µM
- TGI (OVCAR-3 ovarian): 4.05 µM
- GI50 (SNB-19 CNS): 1.19 µM
- TGI (SNB-19 CNS): > 33.3 µM
- GI50 (T-47D breast): 0.858 µM
- TGI (T-47D breast): 9.64 µM
- GI50 (OVCAR-8 ovarian): 1.05 µM
- TGI (OVCAR-8 ovarian): 32.5 µM
- GI50 (LOX IMVI melanoma): 1.04 µM
- TGI (LOX IMVI melanoma): 7.18 µM
- GI50 (NCI/ADR-RES ovarian): 0.812 µM
- TGI (NCI/ADR-RES ovarian): 2.55 µM
- GI50 (SK-MEL-5 melanoma): 0.63 µM
- TGI (SK-MEL-5 melanoma): 1.4 µM
- GI50 (UACC-257 melanoma): 1.82 µM
- TGI (UACC-257 melanoma): 13.8 µM
- GI50 (TK-10 renal): 1.37 µM
- TGI (TK-10 renal): 6.87 µM
- GI50 (OVCAR-4 ovarian): 0.797 µM
- TGI (OVCAR-4 ovarian): 2.72 µM
- GI50 (SF-539 CNS): 0.816 µM
- TGI (SF-539 CNS): 2.24 µM
- GI50 (HOP-92 NSCLC): 1.08 µM
- TGI (HOP-92 NSCLC): 3.02 µM
- GI50 (IGROV1 ovarian): 0.732 µM
- TGI (IGROV1 ovarian): 3.9 µM
- GI50 (M14 melanoma): 0.788 µM
- TGI (M14 melanoma): 2.4 µM
- GI50 (MALME-3M melanoma): 0.784 µM
- TGI (MALME-3M melanoma): 2.27 µM
- GI50 (CCRF-CEM leukemia): 1.44 µM
- TGI (CCRF-CEM leukemia): > 33.3 µM
- GI50 (BT-549 breast): 0.898 µM
- TGI (BT-549 breast): 3.13 µM
- GI50 (NCI-H522 lung): 0.668 µM
- TGI (NCI-H522 lung): 1.62 µM
- GI50 (SW-620 colon): 0.896 µM
- TGI (SW-620 colon): > 33.3 µM
- GI50 (U251 CNS): 1.11 µM
- TGI (U251 CNS): > 33.3 µM
- GI50 (HCT-116 colon): 0.904 µM
- TGI (HCT-116 colon): > 33.3 µM
- GI50 (SF-295 CNS): 0.926 µM
- TGI (SF-295 CNS): 4.88 µM
- GI50 (HCC-2998 colon): 1.08 µM
- TGI (HCC-2998 colon): 3.74 µM
- GI50 (SNB-75 CNS): 1.87 µM
- TGI (SNB-75 CNS): 8.11 µM
- GI50 (NCI-H23 lung): 0.651 µM
- TGI (NCI-H23 lung): 1.91 µM
- GI50 (A498 renal): 1.3 µM
- TGI (A498 renal): 4.83 µM
- GI50 (OVCAR-5 ovarian): 1.09 µM
- TGI (OVCAR-5 ovarian): 7.18 µM
- GI50 (ACHN renal): 0.947 µM
- TGI (ACHN renal): 4.2 µM
- GI50 (SK-MEL-28 melanoma): 1.2 µM
- TGI (SK-MEL-28 melanoma): 4.69 µM
- GI50 (A549 NSCLC): 1.36 µM
- TGI (A549 NSCLC): 31.1 µM
- GI50 (SN12C renal): 1.22 µM
- TGI (SN12C renal): 7.83 µM
- GI50 (K-562 leukemia): 1.4 µM
- TGI (K-562 leukemia): > 33.3 µM
- GI50 (KM12 colon): 1.35 µM
- TGI (KM12 colon): 30.7 µM
- GI50 (NCI-H460 lung): 0.833 µM
- TGI (NCI-H460 lung): 4.19 µM
- GI50 (PC-3 prostate): 1.12 µM
- TGI (PC-3 prostate): 6.51 µM
- GI50 (MCF7 breast): 0.652 µM
- TGI (MCF7 breast): > 33.3 µM
- GI50 (RPMI-8226 leukemia): 2.27 µM
- TGI (RPMI-8226 leukemia): 19.1 µM
- GI50 (UACC-62 melanoma): 0.728 µM
- TGI (UACC-62 melanoma): 1.61 µM
- GI50 (MOLT-4 leukemia): 1.55 µM
- TGI (MOLT-4 leukemia): > 33.3 µM
- GI50 (HS 578T breast): 2.17 µM
- TGI (HS 578T breast): 14.9 µM
- GI50 (RXF 393 renal): 0.581 µM
- TGI (RXF 393 renal): 1.32 µM
- GI50 (SK-OV-3 ovarian): 1.18 µM
- TGI (SK-OV-3 ovarian): 5.33 µM
- GI50 (HOP-62 NSCLC): 1.01 µM
- TGI (HOP-62 NSCLC): 3.79 µM
- GI50 (HL-60(TB) leukemia): 0.949 µM
- TGI (HL-60(TB) leukemia): > 33.3 µM
